Laboratory results: patent EP4813463A2, “TYK2 INHIBITORS AND COMPOSITIONS AND METHODS THEREOF” (Lynk Pharmaceuticals Co. Ltd., priority 2023, dated 2024)
Where two headings read alike, the source gives them in different places.

Tests used:
TYK2-JH2 domain = target: T1, TYK2-JH2 domain (Homo sapiens, UniProt P29597); test: Binding activity test for JH2 domain of TYK2 (Tb-antibody/tracer FRET)
T1 construct: JAK1-JH2 domain or TYK2-JH2 domain enzyme in assay buffer
How it was run: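 Competitive TR-FRET binding: compounds dispensed as an 11-point 3-fold dilution series, then Tb-labelled antibody and tracer added to the JH2 protein system. Incubated at 25°C, then overnight at 4°C; FRET signal read on Envision and IC50 (nM) derived.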

JAK1-JH2 domain = target: T2, JAK1-JH2 domain (Homo sapiens, UniProt P23458); test: Binding activity test for JH2 domain of JAK1 (Tb-antibody/tracer FRET)
T2 construct: JAK1-JH2 domain or TYK2-JH2 domain enzyme in assay buffer
Method: Binding Activity test for JH2 domain of JAK1 and TYK2 […] Add 8μL/well in echo source plate, echo will add 75nL/well with 3-fold serial dilution for 11 points in assay plate. 75nL DMSO for high control and low control. […] For low control, add 5μL/well assay buffer. And then spin down at 1000rpm and centrifuge for 30 seconds. After enzyme system prepared, add 5μL of Tb-antibody solution into each well of assay plate. Spin down at 1000 rpm and centrifuge for 30sec. After Tb-antibody added, also add 5μL of tracer into the assay plate. Spin down at 1000rpm and centrifuge for 30sec. Incubate for […] at 25°C firstly and then continue to incubate the plate at 4°C overnight. Read by envision in FRET mode. The Luminescence value was recorded by a multi-label reader Envision (PerkinElmer). […] Table 2. IC50 on JH2 domain activity (nM)

[1] = system: Ba/F3-FL-TYK2-P760L cells; test: Anti-proliferative assay in engineered Ba/F3 cells (Cell-Titer Glo, 72 h); assay type: cell-based; details: concentration that causes 50% growth inhibition, read-out: Baf3-FL-T2P760L
How it was run: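 Ba/F3 cells carrying Tel-dimerization/JAK kinase fusion, IL-3-independent, in RPMI-1640 + 10% FBS; 9-point 3-fold dilutions from 20 µM (0.1% DMSO) added after 24 h, 72 h at 37 °C. Viability by Cell-Titer Glo ATP luminescence; % inhibition versus DMSO cells, blank-corrected, giving IC50.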

[2] = JH2 domain enzyme; 60 min at 25°C, then 4°C overnight; read-out: TYK2 JH2 Binding IC50
[3] = ratio of JAK1 JH2 to TYK2 JH2 binding IC50
[4] = JH2 domain enzyme; 60 min at 25°C, then 4°C overnight; read-out: JAK1 JH2 Binding IC50
[5] = Mus musculus, BaF3, 72 h, 72 h compound treatment

T1 sequence (P29597 589-875 limits assumed): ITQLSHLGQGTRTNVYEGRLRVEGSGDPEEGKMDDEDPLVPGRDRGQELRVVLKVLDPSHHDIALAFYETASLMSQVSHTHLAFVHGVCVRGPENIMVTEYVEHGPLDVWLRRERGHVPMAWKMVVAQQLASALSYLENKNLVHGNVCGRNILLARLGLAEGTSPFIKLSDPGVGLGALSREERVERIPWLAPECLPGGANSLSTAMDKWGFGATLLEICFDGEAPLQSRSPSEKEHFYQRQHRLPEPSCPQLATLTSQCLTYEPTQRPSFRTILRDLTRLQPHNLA
T2 sequence (P23458 583-855 limits assumed): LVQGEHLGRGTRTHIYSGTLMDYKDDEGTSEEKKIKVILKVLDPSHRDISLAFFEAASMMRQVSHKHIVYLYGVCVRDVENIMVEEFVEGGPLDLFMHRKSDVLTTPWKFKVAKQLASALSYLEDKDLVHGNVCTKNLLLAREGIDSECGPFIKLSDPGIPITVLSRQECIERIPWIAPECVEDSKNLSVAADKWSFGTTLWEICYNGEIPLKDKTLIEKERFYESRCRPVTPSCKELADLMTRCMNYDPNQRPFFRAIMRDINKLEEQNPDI

[2H]C([2H])([2H])NC(=O)c1cnc(NC(=O)[C@@H]2C[C@@H]2F)cc1Nc1cnn2ccc(C(O)C(F)(F)F)c(OC)c12 (single isomer, unassigned) [Example 15B, 6-((1S,2S)-2-fluorocyclopropane-1-carboxamido)-4-((4-methoxy-5-((R*)-2,2,2-trifluoro-1-hydroxyethyl)pyrazolo[1,5-a]pyridin-3-yl)amino)-N-(methyl-d3)nicotinamide]
IC50 (TYK2-JH2 domain; [2]): 0.375 nM
JAK1/TYK2 selectivity (TYK2-JH2 domain; [3]): 53.3
IC50 (JAK1-JH2 domain; [4]): 20 nM
IC50 ([1]; 72 h compound treatment): 870 nM

[2H]C([2H])([2H])NC(=O)c1cnc(NC(=O)C2CC23CC3)cc1Nc1cnn2ccc([C@H](O)C(F)(F)F)c(OC)c12 (single isomer, unassigned) [Example 32B, 4-((4-Methoxy-5-((S)-2,2,2-trifluoro-1-hydroxyethyl)pyrazolo[1,5-a]pyridin-3-yl)amino)-N-(methyl-d3)-6-((R*)-spiro[2.2]pentane-1-carboxamido)nicotinamide]
IC50 (TYK2-JH2 domain; [2]): 0.108 nM
JAK1/TYK2 selectivity (TYK2-JH2 domain; [3]): 106.2
IC50 (JAK1-JH2 domain; [4]): 11.5 nM
IC50 ([1]; 72 h compound treatment): 27.3 nM

[2H]C([2H])([2H])CC(=O)c1cnc(NC(=O)C2CC2)cc1Nc1nn(C)c2ccc(C(OC)C(F)(F)F)c(OC)c12 (single isomer, unassigned) [Example 65A, (R*)-N-(4-((4-methoxy-1-methyl-5-(2,2,2-trifluoro-1-methoxyethyl)-1H-indazol-3-yl)amino)-5-(propanoyl-3,3,3-d3)pyridin-2-yl)cyclopropanecarboxamide]
IC50 (TYK2-JH2 domain; [2]): 0.54 nM
JAK1/TYK2 selectivity (TYK2-JH2 domain; [3]): >553.80
IC50 (JAK1-JH2 domain; [4]): > 298 nM
IC50 ([1]; 72 h compound treatment): 117 nM

[2H]C([2H])([2H])CC(=O)c1cnc(NC(=O)C2CC2)cc1Nc1nn(C)c2ccc(C(OC)C(F)(F)F)c(OC)c12 (single isomer, unassigned) [Example 65B, (S*)-N-(4-((4-methoxy-1-methyl-5-(2,2,2-trifluoro-1-methoxyethyl)-1H-indazol-3-yl)amino)-5-(propanoyl-3,3,3-d3)pyridin-2-yl)cyclopropanecarboxamide]
IC50 (TYK2-JH2 domain; [2]): 0.09 nM
JAK1/TYK2 selectivity (TYK2-JH2 domain; [3]): 144.84
IC50 (JAK1-JH2 domain; [4]): 12.5 nM
IC50 ([1]; 72 h compound treatment): 2.1 nM

[2H]C([2H])([2H])NC(=O)c1nnc(NC(=O)C2CC23CC3)cc1Nc1cnn2ccc([C@H](O)C(F)(F)F)c(OC)c12 (single isomer, unassigned) [Example 82A, 4-((4-Methoxy-5-((S)-2,2,2-trifluoro-1-hydroxyethyl)pyrazolo[1,5-a]pyridin-3-yl)amino)-N-(methyl-d3)-6-((R*)-spiro[2.2]pentane-1-carboxamido)pyridazine-3-carboxamide]
IC50 (TYK2-JH2 domain; [2]): 0.21 nM
JAK1/TYK2 selectivity (TYK2-JH2 domain; [3]): 38.29
IC50 (JAK1-JH2 domain; [4]): 7.96 nM
IC50 [1, 5]: 35 nM

[2H]C([2H])([2H])NC(=O)c1nnc(NC(=O)C2CC23CC3)cc1Nc1cnn2ccc([C@H](O)C(F)(F)F)c(OC)c12 (single isomer, unassigned) [Example 82B, 4-((4-Methoxy-5-((S)-2,2,2-trifluoro-1-hydroxyethyl)pyrazolo[1,5-a]pyridin-3-yl)amino)-N-(methyl-d3)-6-((S*)-spiro[2.2]pentane-1-carboxamido)pyridazine-3-carboxamide]
IC50 (TYK2-JH2 domain; [2]): 0.23 nM
JAK1/TYK2 selectivity (TYK2-JH2 domain; [3]): 27.48
IC50 (JAK1-JH2 domain; [4]): 6.32 nM
IC50 ([1]; 72 h compound treatment): 27 nM

CCOC(c1ccc2c(c(Nc3cc(NC(=O)C4CC4)ncc3C(=O)OC)nn2C)c1OC)C(F)(F)F (single isomer, unassigned) [Example 106B, Methyl (S*)-6-(cyclopropanecarboxamido)-4-((5-(1-ethoxy-2,2,2-trifluoroethyl)-4-methoxy-1-methyl-1H-indazol-3-yl)amino)nicotinate]
IC50 (TYK2-JH2 domain; [2]): 0.21 nM
JAK1/TYK2 selectivity (TYK2-JH2 domain; [3]): 75.19
IC50 (JAK1-JH2 domain; [4]): 15.8 nM
IC50 [1, 5]: 5.49 nM

CNC(=O)c1nnc(NC(=O)C2CC2)cc1Nc1cn(C)c2cccc(OC)c12 [Example 1, 6-(Cyclopropanecarboxamido)-4-((4-methoxy-1-methyl-1H-indol-3-yl)amino)-N-methylpyridazine-3-carboxamide]
IC50 (TYK2-JH2 domain; [2]): 2.33 nM
JAK1/TYK2 selectivity (TYK2-JH2 domain; [3]): 8.4
IC50 (JAK1-JH2 domain; [4]): 19.5 nM
IC50 [1, 5]: 1170 nM

[2H]C([2H])([2H])NC(=O)c1cnc(NC(=O)C2CC2)cc1Nc1cnn2ccc(C(=O)OC)c(OC)c12 [Example 6, Methyl 3-((2-(cyclopropanecarboxamido)-5-((methyl-d3)carbamoyl)pyridin-4-yl)amino)-4-methoxypyrazolo[1,5-a]pyridine-5-carboxylate]
IC50 (TYK2-JH2 domain; [2]): 0.482 nM
JAK1/TYK2 selectivity (TYK2-JH2 domain; [3]): 15.4
IC50 (JAK1-JH2 domain; [4]): 7.45 nM
IC50 [1, 5]: 146 nM

[2H]C([2H])([2H])NC(=O)c1cnc(NC(=O)C2CC2)cc1Nc1cnn2ccc(C(F)(F)F)c(OC)c12 [Example 10, 6-(Cyclopropanecarboxamido)-4-((4-methoxy-5-(trifluoromethyl)pyrazolo[1,5-a]pyridin-3-yl)amino)-N-(methyl-d3)nicotinamide]
IC50 (TYK2-JH2 domain; [2]): 0.224 nM
JAK1/TYK2 selectivity (TYK2-JH2 domain; [3]): 43.3
IC50 (JAK1-JH2 domain; [4]): 9.71 nM
IC50 [1, 5]: 120 nM

[2H]C([2H])([2H])NC(=O)c1cnc(NC(=O)[C@@H]2C[C@@H]2F)cc1Nc1cnn2ccc(C(F)(F)F)c(OC)c12 [Example 11, 6-((1S,2S)-2-fluorocyclopropane-1-carboxamido)-4-((4-methoxy-5-(trifluoromethyl)pyrazolo[1,5-a]pyridin-3-yl)amino)-N-(methyl-d3)nicotinamide]
IC50 (TYK2-JH2 domain; [2]): 0.182 nM
JAK1/TYK2 selectivity (TYK2-JH2 domain; [3]): 96.5
IC50 (JAK1-JH2 domain; [4]): 17.6 nM
IC50 [1, 5]: 54.5 nM

[2H]C([2H])([2H])NC(=O)c1cnc(NC(=O)C2CC2)cc1Nc1cnn2ccc(COC)c(OC)c12 [Example 16, 6-(Cyclopropanecarboxamido)-4-((4-methoxy-5-(methoxymethyl)pyrazolo[1,5-a]pyridin-3-yl)amino)-N-(methyl-d3)nicotinamide]
IC50 (TYK2-JH2 domain; [2]): 0.22 nM
JAK1/TYK2 selectivity (TYK2-JH2 domain; [3]): 64.0
IC50 (JAK1-JH2 domain; [4]): 14.1 nM
IC50 [1, 5]: 87 nM

[2H]C([2H])([2H])NC(=O)c1cnc(NC(=O)C2CC2)cc1Nc1cnn2ccc([C@H](OC([2H])([2H])[2H])C(F)(F)F)c(OC)c12 [Example 28, (S)-6-(cyclopropanecarboxamido)-4-((4-methoxy-5-(2,2,2-trifluoro-1-(methoxy-d3)ethyl)pyrazolo[1,5-a]pyridin-3-yl)amino)-N-(methyl-d3)nicotinamide]
IC50 (TYK2-JH2 domain; [2]): 0.073 nM
JAK1/TYK2 selectivity (TYK2-JH2 domain; [3]): 102.5
IC50 (JAK1-JH2 domain; [4]): 7.48 nM
IC50 [1, 5]: 10.7 nM

[2H]C([2H])([2H])NC(=O)c1cnc(NC(=O)C2CC2)cc1Nc1cnn2ccc(C(C)(C)O)c(C)c12 [Example 34, 6-(Cyclopropanecarboxamido)-4-((5-(2-hydroxypropan-2-yl)-4-methylpyrazolo[1,5-a]pyridin-3-yl)amino)-N-(methyl-d3)nicotinamide]
IC50 (TYK2-JH2 domain; [2]): 161 nM
JAK1/TYK2 selectivity (TYK2-JH2 domain; [3]): >1.85
IC50 (JAK1-JH2 domain; [4]): > 298 nM
IC50 [1, 5]: > 5000 nM

[2H]C([2H])([2H])NC(=O)c1cnc(NC(=O)[C@@H]2C[C@@H]2F)cc1Nc1cnn2cnc(OC)c(OC)c12 [Example 36, 4-((4,5-Dimethoxypyrazolo[1,5-c]pyrimidin-3-yl)amino)-6-((1S,2S)-2-fluorocyclopropane-1-carboxamido)-N-(methyl-d3)nicotinamide]
IC50 (TYK2-JH2 domain; [2]): 4.55 nM
JAK1/TYK2 selectivity (TYK2-JH2 domain; [3]): 56.0
IC50 (JAK1-JH2 domain; [4]): 255 nM
IC50 [1, 5]: 1770 nM

[2H]C([2H])([2H])NC(=O)c1cnc(NC(=O)[C@@H]2C[C@@H]2F)cc1Nc1cnn2cnc(C(O)C(F)(F)F)c(OC)c12 (stereo partly drawn) [Example 39, 6-((18,25)-2-fluorocyclopropane-1-carboxamido)-4-((4-methoxy-5-(2,2,2-trifluoro-1-hydroxyethyl)pyrazolo[1,5-c]pyrimidin-3-yl)amino)-N-(methyl-d3)nicotinamide]
JAK1/TYK2 selectivity (TYK2-JH2 domain; [3]): >532.1
IC50 (TYK2-JH2 domain; read-out: TYK2 JH2 Binding IC50; JH2 domain enzyme; 60 min at 25°C, then 4°C overnight): 0.561 nM
IC50 (JAK1-JH2 domain; read-out: JAK1 JH2 Binding IC50; JH2 domain enzyme; 60 min at 25°C, then 4°C overnight): > 298 nM
IC50 ([1]; Mus musculus, BaF3, 72 h compound treatment): 350 nM

[2H]C([2H])([2H])NC(=O)c1cnc(NC(=O)C2CC2)cc1Nc1cnn2ccccc12 [Example 40, 6-(Cyclopropanecarboxamido)-N-(methyl-d3)-4-(pyrazolo[1,5-a]pyridin-3-ylamino)nicotinamide]
IC50 (TYK2-JH2 domain; [2]): 186 nM
JAK1/TYK2 selectivity (TYK2-JH2 domain; [3]): >1.6
IC50 (JAK1-JH2 domain; [4]): > 298 nM
IC50 [1, 5]: > 5000 nM

[2H]C([2H])([2H])NC(=O)c1cnc(NC(=O)C2CC2)cc1Nc1cnn2ccc(C(O)C(F)(F)F)cc12 (stereo not drawn) [Example 41, 6-(Cyclopropanecarboxamido)-N-(methyl-d3)-4-((5-(2,2,2-trifluoro-1-hydroxyethyl)pyrazolo[1,5-a]pyridin-3-yl)amino)nicotinamide]
IC50 (TYK2-JH2 domain; [2]): 46.8 nM
JAK1/TYK2 selectivity (TYK2-JH2 domain; [3]): >6.37
IC50 (JAK1-JH2 domain; [4]): > 298 nM
IC50 [1, 5]: > 5000 nM
